From patent US4668630A, “Stabilized enzymatic composition” (Beckman Instruments, Inc., priority 1984, dated 1987)
Counter-ions that a name gives are not always drawn.

System: lactate dehydrogenase (LD)
Assay: LD activity of serial dilution samples on Roche Cobas UV clinical analyzer
Assay type: biochemical, human
Details: Table II, 1-20 mg/ml KO2 CCO2 K in LD SEG
Description: Aliquots of this base solution were diluted as shown in Table I with a LD SEG solution devoid of KO2 CCO2 K. The LD activity of each of the serial dilution samples was measured on a Roche Cobas brand UV clinical analyzer and the results are set forth in Table II.

- effect on LD activity (in words): inhibition of LD activity
Compound: O=C(O)C(=O)O [KO2 CCO2 K, potassium oxalate]
